Experimental data published in patent US4284653A, “Process for handling and processing fish meat” (Nippon Suisan Kabushiki Kaisha, priority 1979, dated 1981).
Starred links: 1 amine or outer side, 2 acyl side, 3 side chain; linkers in the order of their positions; H or OH if unused. Residues, ends and D or L forms follow the SMILES beside them. CO = O=C([*:1])[*:2]

How the values were obtained:
[1] = test system: protease of hake flesh with jellied condition; experiment: Inhibition of protease in aqueous extract of hake meat with jellied condition (urea-denatured hemoglobin substrate, Folin method); format: biochemical
Protocol: North Pacific hake (Merluccius products) on which the sporosa were parasitic was minced and homogenized with two volumes of water. After standing for 2 hours, the homogenate was centrifuged (15,000 xg, 20 minutes) under cooling condition, and the supernatant was dialyzed against tap water for 24 hours. The residual liquid remaining after the dialysis was heated at 50° C. for 20 minutes. The resulting precipitate was removed under cooling by centrifuge (15,000 xg, 30 minutes). The supernatant liquid was designated an aqueous extract of fish meat with jellied condition.
Separately, 3 ml of Mclvaine buffer solution (pH=3) was added to 1 ml of urea-denatured bovine hemoglobin (at a concentration of 4%) to prepare a substrate solution. 1 ml of a 1:1 mixture of the above obtained extract and a solution of various TPI was added to the above prepared substrate solution. The resulting mixture was incubated at 40° C. for 5 minutes. Thereafter, 5 ml of a 5% trichloroacetic acid was added to the mixture to allow the reaction to stop. The reaction mixture was left to stand for 30 minutes at room temperature. Then, the mixture was filtered through a filter paper (Toyo filter paper No. 5C). 1 ml of the filtrate was colorometrically determined at a wave length of 660 mμ by a Folin method.
The protease inhibition ratio of various proteolytic activity of the TPI is expressed as the […] relative activity with respect to 100 of the activity of an extract prepared by adding water instead of the TPI solution. That is, [formula]

[2] = test system: proteolytic enzyme of yellowfin sole meat with jellied condition; experiment: Proteolytic enzyme activity of treated fish meat, yellowfin sole; format: biochemical, yellowfin sole (Limanda aspera)
Excerpt: (§1) The quantity of the TPI added generally also depends upon the concentration of a proteolytic enzyme of fish meat contaminated with sporozoa. For example, North Pacific hake on which sporozoa are parasitic has a proteolytic enzyme activity of from a low level up to 30,000 units.
One hundred North Pacific frozen yellowfin sole containing a large number of spots of jellied condition in their muscles were thawed. These flatfish were gutted and the abdominal pores were washed.
During the dipping, the flatfish were irradiated with supersonic waves having a frequency of 18 KC for 10 minutes by using the same magnetostriction type supersonic wave oscillator as described in Example 2. Thereafter, the flatfish were drained. Then, these fish were dried at 15° C. in a low temperature dryer dehydromaster to obtain dried flatfish with salt.
350 Kg of the flatfish was headed and gutted and the meat was collected by means of a fish meat separator. […] As described in Example 9, this fish meat was twice soaked in cold water in a quantity two times that of the meat and drained to obtain 130 Kg of hydroextracted meat.
A solution of 0.6 g of antipain in 1 l of water was added to 60 Kg of each sample of the hydroextracted meat and the mixture was uniformly mixed. 10 Kg of the mixture was packed in a polyethylene bag to obtain a raw kneaded meat. A control was prepared in the same manner except that 1 l of water alone was added.
These raw kneaded meats were stored in a refrigerator at a temperature of from 4° to 5° C. for 24 hours. Thereafter, these meats were removed from the refrigerator. Then, 1.5 Kg of sodium chloride, 2.5 Kg of sugar, 4.0 Kg of starch, 1.2 Kg of mirin (sweet sake) and 0.5 Kg of sodium glutamate were added to 50 Kg of each of the raw kneaded meats, and the mixture was ground and formed into "itatuki-kamaboko" according to a conventional method.

[3] = test system: proteolytic enzyme of Pacific hake meat with jellied condition; experiment: Proteolytic enzyme activity of treated fish meat, Pacific hake; format: biochemical; settings: Example 11; soaked 10 minutes in 200 l cold water with 100 g sodium hydrogensulfite; control 3,200 units
Excerpt: as §1
The resulting fish was subjected to a fillet making machine to obtain skinless fillets. […] Each fillet sample was washed with water containing 0.05% of sodium sulfite. […]
Then, fish meat was collected from the thawed hake by means of a fish meat separator. […] The fish meat was soaked in cold water in a quantity two times that of the meat and drained, and it was again soaked in cold water in the same quantity and drained to obtain 105 Kg of hydroextracted meat. […]
The frozen testing and control kneaded meats thus obtained were thawed and subjected to a model estimation method of elasticity. In testing the elasticity, the kneaded meats are usually formed into a model product of a Japanese style fish meat paste and the model product is evaluated for quality.
200 Kg of the frozen fillet of the same Pacific hake as that described in Example 9 was thawed. […] Then, the fish meat was soaked in cold water in a quantity two times that of the meat and drained. […] The first portion was soaked in cold water in a quantity two times that of the meat and drained to obtain 50 Kg of hydroextracted meat as a control. […]

[4] = concentration 0.01%, 40° C., 5 minutes, pH 3
[5] = concentration 0.002%, 40° C., 5 minutes, pH 3
[6] = aqueous fish meat extract, pH 3, 5 min
[7] = concentration 0.02%, 40° C., 5 minutes, pH 3

Q: `N.O.O.O.O.O.O.O.O.O.O.O.O.O=S(=O)([O-])O.O=S(=O)([O-])[O-].[Al+3]` [ammonium alum] was tested. Which “inhibition ratio (%)” value [1, 4] did it give?
A: The value was 89.8%.

Q: Which “inhibition ratio (%)” value ([1]; concentration 0.015%, 40° C., 5 minutes, pH 3) does the source give for `N.N.O=S(=O)(O)OOS(=O)(=O)O` [ammonium persulfate] here?
A: Its value is 91.7%.

Q: Which “inhibition ratio (%)” value [1, 5] does the source give for `CC(C)[C@H](NC(=O)[C@H](CCCNC(=N)N)NC(=O)N[C@@H](Cc1ccccc1)C(=O)O)C(=O)N[C@H](C=O)CCCNC(=N)N` [antipain] ({Phe-CO}-Arg-Val-Arg-aldehyde) here?
A: The value was 72.9%.

Q: And the “proteolytic enzyme activity of raw kneaded meat” value ([2]; Example 12, 0.6 g antipain in 1 l water per 60 Kg hydroextracted meat, control 1,140 units)?
A: The value was 980 units.

Q: What about the “proteolytic enzyme activity of ground meat” value ([2]; Example 12, after 24 hours at 4° to 5° C. and grinding with salt, sugar, starch, control 1,080 units) of the same compound?
A: Its value is 23 units.

Q: With `O=C(OOC(=O)c1ccccc1)c1ccccc1` [benzoyl peroxide] as the compound, how does the “inhibition ratio (%)” value [1, 4] read?
A: Its value is 82.3%.

Q: With `[Ca+2].[O-]Cl.[O-]Cl` [calcium hypochlorite] as the compound, how does the “inhibition ratio (%)” value [1, 4] read?
A: Its value is 98.1%.

Q: For `[O]=[Ca]` [calcium oxide], which “inhibition ratio (%)” value [1, 4] is on record?
A: Its value is 100.0%.

Q: Which “inhibition ratio (%)” value [1, 4] does the source give for `[O][Cl+][O-]` [chlorine dioxide] here?
A: Its value is 100.0%.

Q: `OO` [hydrogen peroxide] was tested. Which “inhibition ratio (%)” value ([1]; concentration 0.001%, 40° C., 5 minutes, pH 3) did it give?
A: Its value is 86.8%.

Q: What about the “inhibition ratio (%)” value [1, 4] of the same compound?
A: The value was 100.0%.

Q: Which “inhibition ratio (%)” value [1, 4] does the source give for `OCl` [hypochlorous acid] here?
A: Its value is 88.5%.

Q: `CC(=O)N[C@@H](CC(C)C)C(=O)N[C@@H](CC(C)C)C(=O)N[C@H](C=O)CCCNC(=N)N` [leupeptin, reference compound] was tested. Which “inhibition ratio (%)” value [1, 5] did it give?
A: The value was 99.0%.

Q: With `[K+].[K+].[O]=[Cr](=[O])([O-])[O][Cr](=[O])(=[O])[O-]` [potassium dichromate, reference compound] as the compound, how does the “inhibition of the activity of the protease produced by the sporozoa (in words)” value [1] read?
A: Its value is “high inhibition”.

Q: And the “inhibition ratio (%)” value [1, 6]?
A: Its value is 96.1%.

Q: With `O=[N+]([O-])[O-].[K+]` [potassium nitrate, reference compound] as the compound, how does the “inhibition ratio (%)” value [1, 4] read?
A: The value was -1.4%.

Q: `O=S([O-])O.[Na+]` [sodium hydrogen sulfite] was tested. Which “inhibition ratio (%)” value [1, 7] did it give?
A: The value was 96.1%.

Q: And the “proteolytic enzyme activity of hydroextracted meat” value [3]?
A: The value was 840 units.

Q: `OCl` [sodium hypochlorite] was tested. Which “inhibition ratio (%)” value [1, 4] did it give?
A: The value was 87.8%.

Q: With `O=S([O-])S(=O)(=O)[O-].[Na+].[Na+]` [sodium metabisulfite] as the compound, how does the “inhibition ratio (%)” value ([1]; concentration 0.05%, 40° C., 5 minutes, pH 3) read?
A: The value was 96.2%.

Q: Which “inhibition ratio (%)” value [1, 6] does the source give for `O=NO` [sodium nitrite] here?
A: The value was 90.2%.

Q: `O=S([O-])[O-].[Na+].[Na+]` [sodium sulfite] was tested. Which “inhibition ratio (%)” value [1, 7] did it give?
A: Its value is 93.4%.

Q: Which results are given for chymostatin [reference compound]?
A: inhibition ratio (%) [1, 5]: 97.0%; proteolytic enzyme activity of dried flatfish with salt whose muscle was softened and partially depressed ([2]; Example 7, dipped 2 hours in 10% sodium chloride containing 0.01% chymostatin, supersonic waves 18 KC 10 minutes, muscles had 5,000 units before): 120 units

Q: Which “inhibition ratio (%)” value [1, 4] does the source give for sodium chlorite here?
A: Its value is 100.0%.
